Source: PubChem BioAssay AID2060490 (Molecular Pharmacology Branch, DTP, NCI, 2025)
One block for each compound: values may come before it.

Test system: 885512-296-R-J2-PDC complex spheroid viability
Assay: Anticancer human tumor 885512-296-R-J2-PDC patient-derived breast carcinoma cell line growth inhibition [GQUAD]
Conditions: for IC50: curve of first compound; for viability, T/C: stronger effect = lower value
Method in brief: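 Tumor cells were grown as complex spheroids with HUVEC endothelial cells and mesenchymal stem cells as stroma. G-quadruplex stabilizers were combined with targeted agents over half-log dilutions from near the clinical Cmax, or from 10 microM.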

[1] = second compound 0.0316 µM, first compound 0.0316 µM
[2] = second compound 0.0316 µM, first compound 0.1 µM
[3] = second compound 0.0316 µM, first compound 0.316 µM
[4] = second compound 0.0316 µM, first compound 1 µM
[5] = second compound 0.0316 µM, first compound 3.16 µM
[6] = second compound 0.0316 µM, first compound 10 µM
[7] = second compound 0.1 µM, first compound 0.0316 µM
[8] = second compound 0.1 µM, first compound 0.1 µM
[9] = second compound 0.1 µM, first compound 0.316 µM
[10] = second compound 0.1 µM, first compound 1 µM
[11] = second compound 0.1 µM, first compound 3.16 µM
[12] = second compound 0.1 µM, first compound 10 µM
[13] = second compound 0.316 µM, first compound 0.0316 µM
[14] = second compound 0.316 µM, first compound 0.1 µM
[15] = second compound 0.316 µM, first compound 0.316 µM
[16] = second compound 0.316 µM, first compound 1 µM
[17] = second compound 0.316 µM, first compound 3.16 µM
[18] = second compound 0.316 µM, first compound 10 µM
[19] = second compound 1 µM, first compound 0.0316 µM
[20] = second compound 1 µM, first compound 0.1 µM
[21] = second compound 1 µM, first compound 0.316 µM
[22] = second compound 1 µM, first compound 1 µM
[23] = second compound 1 µM, first compound 3.16 µM
[24] = second compound 1 µM, first compound 10 µM
[25] = second compound 3.16 µM, first compound 0.0316 µM
[26] = second compound 3.16 µM, first compound 0.1 µM
[27] = second compound 3.16 µM, first compound 0.316 µM
[28] = second compound 3.16 µM, first compound 1 µM
[29] = second compound 3.16 µM, first compound 3.16 µM
[30] = second compound 3.16 µM, first compound 10 µM
[31] = second compound 10 µM, first compound 0.0316 µM
[32] = second compound 10 µM, first compound 0.1 µM
[33] = second compound 10 µM, first compound 0.316 µM
[34] = second compound 10 µM, first compound 1 µM
[35] = second compound 10 µM, first compound 3.16 µM
[36] = second compound 10 µM, first compound 10 µM
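Also: spheroids exposed to the compounds for one week.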
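For viability, T/C in this document: percent of tumor spheroid viability relative to DMSO vehicle control wells.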

IC50 (second compound 0.0316 µM): 0.318 µM
IC50 (second compound 0.1 µM): 0.187 µM
IC50 (second compound 0.316 µM): < 0.0316 µM
IC50 (second compound 1 µM): < 0.0316 µM
IC50 (second compound 3.16 µM): < 0.0316 µM
IC50 (second compound 10 µM): < 0.0316 µM
Structure (SMILES): COc1cc(C2c3cc4c(cc3C(OC3OC5COC(C)OC5C(O)C3O)C3COC(=O)C23)OCO4)cc(OC)c1O (stereo unspecified) + Cc1cnc(CNC(=O)c2c(=O)c3ccc(N4CCCN(C)CC4)nc3n3c2sc2ccccc23)cn1
viability, T/C [1]: 80.8%
viability, T/C [2]: 81%
viability, T/C [3]: 48%
viability, T/C [4]: 22.8%
viability, T/C [5]: 13.4%
viability, T/C [6]: 10.5%
viability, T/C [7]: 57.2%
viability, T/C [8]: 55.8%
viability, T/C [9]: 45%
viability, T/C [10]: 28%
viability, T/C [11]: 13.7%
viability, T/C [12]: 11.4%
viability, T/C [13]: 26%
viability, T/C [14]: 34.3%
viability, T/C [15]: 23.3%
viability, T/C [16]: 24.1%
viability, T/C [17]: 16.4%
viability, T/C [18]: 8.65%
viability, T/C [19]: 29%
viability, T/C [20]: 21.8%
viability, T/C [21]: 23.6%
viability, T/C [22]: 21.1%
viability, T/C [23]: 21.3%
viability, T/C [24]: 14.2%
viability, T/C [25]: 34%
viability, T/C [26]: 28.4%
viability, T/C [27]: 29.6%
viability, T/C [28]: 23.5%
viability, T/C [29]: 22.3%
viability, T/C [30]: 17.7%
viability, T/C [31]: 0.09%
viability, T/C [32]: 0.17%
viability, T/C [33]: 0.18%
viability, T/C [34]: 0.15%
viability, T/C [35]: 0.16%
viability, T/C [36]: 0.18%

Structure (SMILES): COc1ccc([C@@H](O)c2cc(-c3ncnc4cc(N5CCOCC5)ccc34)c(F)cc2Cl)nn1 + Cc1[nH]c2ccc(F)cc2c1-c1nc2c3cccnc3c3ncccc3c2[nH]1
IC50 (second compound 0.0316 µM): > 10 µM
IC50 (second compound 0.1 µM): > 10 µM
IC50 (second compound 0.316 µM): > 10 µM
IC50 (second compound 1 µM): 4.34 µM
IC50 (second compound 3.16 µM): < 0.0316 µM
IC50 (second compound 10 µM): < 0.0316 µM
viability, T/C [1]: 114%
viability, T/C [2]: 92.6%
viability, T/C [3]: 95.5%
viability, T/C [4]: 100%
viability, T/C [5]: 94.2%
viability, T/C [6]: 58.7%
viability, T/C [7]: 121%
viability, T/C [8]: 98%
viability, T/C [9]: 104%
viability, T/C [10]: 94%
viability, T/C [11]: 83.7%
viability, T/C [12]: 51.7%
viability, T/C [13]: 103%
viability, T/C [14]: 96.7%
viability, T/C [15]: 85.9%
viability, T/C [16]: 94.4%
viability, T/C [17]: 73.6%
viability, T/C [18]: 57.5%
viability, T/C [19]: 73.7%
viability, T/C [20]: 85.9%
viability, T/C [21]: 67.6%
viability, T/C [22]: 68.7%
viability, T/C [23]: 59.2%
viability, T/C [24]: 30%
viability, T/C [25]: 11.3%
viability, T/C [26]: 6.47%
viability, T/C [27]: 12.8%
viability, T/C [28]: 5.75%
viability, T/C [29]: 10.1%
viability, T/C [30]: 3.06%
viability, T/C [31]: 1.38%
viability, T/C [32]: 2.32%
viability, T/C [33]: 1.63%
viability, T/C [34]: 1.42%
viability, T/C [35]: 1.48%
viability, T/C [36]: 1.5%

Structure (SMILES): Cc1[nH]c2ccccc2c1CCNCc1ccc(/C=C/C(=O)NO)cc1 + Cc1[nH]c2ccc(F)cc2c1-c1nc2c3cccnc3c3ncccc3c2[nH]1
IC50 (second compound 0.0316 µM): > 0.316 µM
IC50 (second compound 0.1 µM): > 0.316 µM
IC50 (second compound 0.316 µM): > 0.316 µM
IC50 (second compound 1 µM): > 0.316 µM
IC50 (second compound 3.16 µM): < 0.000999 µM
IC50 (second compound 10 µM): < 0.000999 µM
viability, T/C (second compound 0.0316 µM, first compound 0.000999 µM): 99.3%
viability, T/C (second compound 0.0316 µM, first compound 0.00316 µM): 114%
viability, T/C (second compound 0.0316 µM, first compound 0.00999 µM): 97.1%
viability, T/C [1]: 94.9%
viability, T/C (second compound 0.0316 µM, first compound 0.0999 µM): 100%
viability, T/C [3]: 78.2%
viability, T/C (second compound 0.1 µM, first compound 0.000999 µM): 99.7%
viability, T/C (second compound 0.1 µM, first compound 0.00316 µM): 97.1%
viability, T/C (second compound 0.1 µM, first compound 0.00999 µM): 94.7%
viability, T/C [7]: 92.1%
viability, T/C (second compound 0.1 µM, first compound 0.0999 µM): 103%
viability, T/C [9]: 82.4%
viability, T/C (second compound 0.316 µM, first compound 0.000999 µM): 92.5%
viability, T/C (second compound 0.316 µM, first compound 0.00316 µM): 88.4%
viability, T/C (second compound 0.316 µM, first compound 0.00999 µM): 90.2%
viability, T/C [13]: 87.3%
viability, T/C (second compound 0.316 µM, first compound 0.0999 µM): 85.7%
viability, T/C [15]: 69.5%
viability, T/C (second compound 1 µM, first compound 0.000999 µM): 75.9%
viability, T/C (second compound 1 µM, first compound 0.00316 µM): 53.9%
viability, T/C (second compound 1 µM, first compound 0.00999 µM): 62.3%
viability, T/C [19]: 65.9%
viability, T/C (second compound 1 µM, first compound 0.0999 µM): 53.7%
viability, T/C [21]: 56.4%
viability, T/C (second compound 3.16 µM, first compound 0.000999 µM): 5.78%
viability, T/C (second compound 3.16 µM, first compound 0.00316 µM): 9.7%
viability, T/C (second compound 3.16 µM, first compound 0.00999 µM): 7.26%
viability, T/C [25]: 6.61%
viability, T/C (second compound 3.16 µM, first compound 0.0999 µM): 5.06%
viability, T/C [27]: 4.88%
viability, T/C (second compound 10 µM, first compound 0.000999 µM): 1.15%
viability, T/C (second compound 10 µM, first compound 0.00316 µM): 1.37%
viability, T/C (second compound 10 µM, first compound 0.00999 µM): 1.33%
viability, T/C [31]: 2.33%
viability, T/C (second compound 10 µM, first compound 0.0999 µM): 1.05%
viability, T/C [33]: 1.69%
